Experimental data taken from patent publication US20200323962A1, “LIPOPHILIC PEPTIDE PRODRUGS” (YISSUM RESEARCH DEVELOPMENT COMPANY OF THE HEBREW …, priority 2017, published 2020).
Read-outs that look alike come from different tables or passages of the source. Blank lines part the entries; values can stand above or below the compound they belong to.

What was measured:
in vitro = conditions: human; for efflux ratio at 90 min, 10 µM: Caco-2, pH 7.4, Net efflux (quotient of Papp (BA) to Papp (AB)); for Papp A→B at 90 min, 10 μM: Caco-2, pH 7.4, Papp (AB); for Papp B→A at 90 min, 10 μM: Caco-2, pH 7.4, Papp (BA)
[1] = for Papp A→B: Caco-2, Papp (AB); for Papp B→A: Caco-2, Papp (BA)
[2] = PAMPA, pH 7.4
[3] = pH 7.4, LogD, pH 7.4 (mean / reported value)
P-gp = assay: in vitro; conditions: human, Caco-2, pH 7.4, Net efflux in the presence of Verapamil

- efflux ratio at 90 min, 10 µM (in vitro): 1.1
- Papp A→B ([1]; Mean): 1 nm/s
- Papp A→B ([1]; replicate 2): 1 nm/s
- Papp A→B ([1]; replicate 3): 1 nm/s
- Papp B→A ([1]; Mean): 1 nm/s
- Papp B→A ([1]; replicate 1): 1 nm/s
- Papp B→A ([1]; replicate 2): 1 nm/s
- Papp B→A ([1]; replicate 3): 2 nm/s
- Mass retention [2]: 27%
- Permeability, Mean [2]: <−7 Log10[10^−6 cm/s]
- Permeability, replicate 1 [2]: <−7 Log10[10^−6 cm/s]
- Permeability, replicate 2 [2]: <−7 Log10[10^−6 cm/s]
- Permeability, replicate 3 [2]: <−7 Log10[10^−6 cm/s]
- Papp (AB), replicate 1 (Caco-2 cells): 0.0 10^−6 cm/s
- logD [3]: -0.97
SMILES: C[C@@H]1NC(=O)[C@H](C)NC(=O)[C@@H](C)N(C)C(=O)[C@H](C)N(C)C(=O)[C@H](C)NC(=O)[C@H](C)NC1=O [1,6CHA, *aAAAA*A]

- efflux ratio at 90 min, 10 µM (in vitro): 28.6
- Papp A→B at 90 min, 10 μM (in vitro; Mean): 4 nm/s
- Papp A→B at 90 min, 10 μM (in vitro; replicate 1): 4 nm/s
- Papp A→B at 90 min, 10 μM (in vitro; replicate 3): 5 nm/s
- Papp B→A at 90 min, 10 μM (in vitro; Mean): 120 nm/s
- Papp B→A at 90 min, 10 μM (in vitro; replicate 1): 94 nm/s
- Papp B→A at 90 min, 10 μM (in vitro; replicate 2): 120 nm/s
- Papp B→A at 90 min, 10 μM (in vitro; replicate 3): 147 nm/s
- efflux ratio at 90 min, 10 µM (P-gp): 1.5
SMILES: C[C@H]1O[C@@H](O[C@H]2[C@@H](O)C[C@H](O[C@H]3[C@@H](O)C[C@H](O[C@H]4CC[C@@]5(C)[C@H](CC[C@@H]6[C@@H]5C[C@@H](O)[C@]5(C)[C@@H](C7=CC(=O)OC7)CC[C@]65O)C4)O[C@@H]3C)O[C@@H]2C)C[C@H](O)[C@@H]1O [Digoxin]
